For test [1], the target named is periodontal cyclooxygenase. Put plainly: Inhibition of cyclooxygenase products (14C arachidonic acid incorporation) in inflamed human gingival tissue homogenate. The settings on record: for % Control: 2 hours at 37° C. The test is classed as biochemical. As to the method: Inflamed human gingival tissue was obtained from patients with periodontitis who were undergoing routine periodontal surgery. The tissues were immediately stored in liquid nitrogen prior to use or were used fresh. The assay of cyclooxygenase products was performed as a modification of the assay of El Attar et al., J. Periodon. Res., 21, 169-176 (1986). Pooled tissue was weighed and homogenized at 0°-4° C. with a polytron (Brinkman) homogenizer in a 0.2 M TRIS buffer, pH 8.0, at a final concentration of 20 mg/ml. After centrifugation for 10 minutes at 1200×g, the supernatant was divided into 3 ml aliquots for incubation in the presence or absence of a test compound. The test compounds were tested in triplicate over a log range of 10^-3 to 10^-9 M. The reaction was started by the addition of 0.2 uCi of ^14 C arachidonic acid and carried out for 2 hours at 37° C. The reaction was stopped by the addition of two volumes of ethanol and allowed to remain at room temperature for 30 minutes prior to centrifugation for 10 minutes in order to remove the precipitate. The prostaglandin was then extracted.
Prostanoids were extracted as described by Powell, Methods in Eng., 86, 467 (1982) using a Sep-Pak-C18 cartridge from Walters Associates. The Sep-Pak was prepared by the sequential elusion of 20 milliliters of ethanol and 20 milliliters of water. The sample was then adjusted to 15% ethanol, pH 3.0, with acetic acid and applied to the column. The column was eluted with 20 ml of 15% ethanol, pH 3.0, 20 ml of petroleum ether and then the prostaglandin and Tx (thromboxane) was eluded with 10 ml of methyl formate. Thereafter, the methyl formate was evaporated to dryness with nitrogen and reconstituted in 32% […] (high-pressure liquid chromatography buffer).
These are readily separated and quantified using a 4.6×100 mm RP-18 Spheri-5u column from Brownlee Labs. A Flow-One radioactivity monitor simultaneously measured radioactivity. The elution was monitored at 192 nanometers.
The net incorporation of the ^14 C arachidonate was measured in the absence of the test substance in order to determine the maximal activity of the cyclooxygenase cascade. The percent inhibition for the inhibitors tested was then determined at several concentrations in order to calculate the IC50.

Test [2] deals with periodontally supporting bone loss. The following applies: beagle dog model; clinical index of periodontal disease progression; cited from earlier work.

pIC50: −log10 of the molar value.

What is called pIC50 is −log10 of the IC50, conventionally taken in molar units. For `CC(C)Cc1ccc(C(C)C(=O)O)cc1` (centres unmarked) [ibuprofen], in test [1] (calculated from percent inhibition at several concentrations), the negative logarithm of the IC50 (pIC50) is 4.82. Moreover, the “% Control” value is 27.5% in test [1] (drug concentration 1 × 10^-4 M, 100 µM); 55.6% in test [1] (drug concentration 1 × 10^-5 M, 10 µM); 92.6% in test [1] (drug concentration 10^-6 M, 1 µM). Besides, in test [2], the “Inhibition of periodontally supporting bone loss” value was “effective”.

Source of the values: patent publication US5225441A, “Treatment of periodontal disease” (Block Drug Company, Inc., priority 1987, dated 1993).
